The values that follow are results of earlier work, collected in patent publication US20030133985A1, “Formulation of an erodible, gastric retentive oral dosage form using in vitro disintegration test data” (priority 2001, published 2003).

The conditions of this data set: at 20° C.

As for `CC1(C)O[C@@H]2[C@@H](CO[C@@]3(COS(N)(=O)=O)OC(C)(C)O[C@@H]23)O1` [topiramate], the water solubility is 1%.
